# In US20240215573A1, “LIQUID AGROCHEMICAL COMPOSITION” (NOURYON CHEMICALS INTERNATIONAL B.V., priority 2020, published 2024):
# Experiments:
# Format in all cases: in vivo
# Alfalfa [1] = experiment: Greenhouse Test 1: weed control by 2,4-D with surfactants
# Text: In a first series of Examples, the following compounds are utilized to evaluate the efficacy of various herbicides in combination with various surfactants against two types of weeds: • Herbicides: […]; dicamba; and glufosinate • Surfactants: Glycerol Monosoyate+10EO; • Glycerol Monosoyate+15EO; • Glycerol Monosoyate+20EO; • Glycerol Monosoyate+30EO; • Glycerol Monosoyate+50EO; • Soybean oil+20EO; • Reference 1—Polyoxyethylene (20) sorbitan monolaurate • Reference 2—Sodium lauryl ether sulfate The following test protocol is used:
# (§1) Data is collected at end of each week for 4 weeks.
# Alfalfa [2] = experiment: Greenhouse Test 1: weed control by dicamba with surfactants
# Text: (§2) In a first series of Examples, the following compounds are utilized to evaluate the efficacy of various herbicides in combination with various surfactants against two types of weeds: • Herbicides: 2,4-D ester; dicamba; and glufosinate • Surfactants: Glycerol Monosoyate+10EO; • Glycerol Monosoyate+15EO; • Glycerol Monosoyate+20EO; • Glycerol Monosoyate+30EO; • Glycerol Monosoyate+50EO; • Soybean oil+20EO; • Reference 1—Polyoxyethylene (20) sorbitan monolaurate • Reference 2—Sodium lauryl ether sulfate The following test protocol is used:
# as §1
# Morning glory = experiment: Greenhouse Test 1: weed control by glufosinate with surfactants
# Text: as §2, §1
# fungi = experiment: Greenhouse Test 2: overall comparison over the 4 fungicide formulations and 4 fungi; settings: all 4 fungicide formulations; summary in words
# Text: (§3) In a second series of Examples, the following compounds are utilized to evaluate the efficacy of various fungicides in combination with various surfactants against fungi: • Fungicides: Hexaconazole 5% EC; Dimethomorph 50WP; Thiophenate methyl 70% WP; Azoxystrobin 23 SC • Surfactants: • Dioctyl sulfosuccinate • Alkoxylated glyceride with 20EO; • Alkoxylated glyceride with 50EO; • Siloxane Polyalkyleneoxide Copolymer • Fungi: • Powdery mildew (Erysiphenecator); • Downy mildew (Plasmopara viticola); • Anthracnose (Colletotrichum gloeosporioides); and • Early blight (Alternariasolani). The following test protocol is used:
# (§4) There are 4 different fungicide formulations tested against 4 different pests (fungi). For each test there are untreated control (#1) and fungicide only w/o surfactant (#2). The same general protocol described above was used.
# [3] = test system: Anthracnose (Colletotrichum gloeosporioides); experiment: Greenhouse Test 2: Thiophenate methyl 70% WP with surfactants against anthracnose of grapes; settings: Table C, summary in words
# Text: as §3, §4
# Percent Disease Index (PDI) for powdery mildew, downy mildew, anthracnose and early blight diseases were calculated by following formulae: […]
# In case of grapes ratings on minimum ten leaves and a bunch were recorded on randomly selected canes. Ten such canes per plant were observed. The observations on 8 plants spread over four replication were recorded. Thus, the data presented on PDI is average of randomly selected 80 canes.
# [4] = Table 1A: 2,4-D DMA 91 g ae/A, surfactant 0.1%
# [5] = Table 1B: 2,4-D DMA 91 g ae/A, surfactant 0.25%
# [6] = Table 1C: 2,4-D DMA 91 g ae/A, surfactant 0.25% (so in the source)
# [7] = Table 1D: 2,4-D DMA 91 g ae/A (so in the source), surfactant 0.25%
# [8] = Table 2A: Dicamba 23 g ae/A, surfactant 0.1%
# [9] = Table 2B: Dicamba 23 g ae/A, surfactant 0.25%
# [10] = Table 2C: Dicamba 45 g ae/A, surfactant 0.1%
# [11] = Table 2D: Dicamba 45 g ae/A, surfactant 0.25%
# [12] = Table 3A: Glufosinate 3 oz/a, surfactant 0.25%
# [13] = Table 3B: Glufosinate 3 oz/a, surfactant 0.5%
# [14] = Table 3C: Glufosinate 6 oz/a, surfactant 0.25%
# [15] = Table 3D: Glufosinate 6 oz/a, surfactant 0.50%
compound,measurement,setting,value
"CNC.O=C(O)COc1ccc(Cl)cc1Cl [2,4-D DMA]","% weed control, 7 day",Alfalfa [1]; [4],0.0%
same,"% weed control, 14 day",Alfalfa [1]; [4],0.0%
same,"% weed control, 21 day",Alfalfa [1]; [4],27.5%
same,"% weed control, 28 day",Alfalfa [1]; [4],32.5%
same,"% weed control, 7 day",Alfalfa [1]; [5],0.0%
same,"% weed control, 14 day",Alfalfa [1]; [5],0.0%
same,"% weed control, 21 day",Alfalfa [1]; [5],27.5%
same,"% weed control, 28 day",Alfalfa [1]; [5],32.5%
same,"% weed control, 7 day",Alfalfa [1]; [6],0.0%
same,"% weed control, 14 day",Alfalfa [1]; [6],7.5%
same,"% weed control, 21 day",Alfalfa [1]; [6],57.5%
same,"% weed control, 28 day",Alfalfa [1]; [6],57.5%
same,"% weed control, 7 day",Alfalfa [1]; [7],0.0%
same,"% weed control, 14 day",Alfalfa [1]; [7],7.5%
same,"% weed control, 21 day",Alfalfa [1]; [7],57.5%
same,"% weed control, 28 day",Alfalfa [1]; [7],57.5%
COc1c(Cl)ccc(Cl)c1C(=O)O [Dicamba],"% weed control, 7 day",Alfalfa [2]; [8],0.0%
same,"% weed control, 14 day",Alfalfa [2]; [8],20.0%
same,"% weed control, 21 day",Alfalfa [2]; [8],20.0%
same,"% weed control, 28 day",Alfalfa [2]; [8],12.5%
same,"% weed control, 7 day",Alfalfa [2]; [9],0.0%
same,"% weed control, 14 day",Alfalfa [2]; [9],20.0%
same,"% weed control, 21 day",Alfalfa [2]; [9],20.0%
same,"% weed control, 28 day",Alfalfa [2]; [9],12.5%
same,"% weed control, 7 day",Alfalfa [2]; [10],0.0%
same,"% weed control, 14 day",Alfalfa [2]; [10],50.0%
same,"% weed control, 21 day",Alfalfa [2]; [10],75.0%
same,"% weed control, 28 day",Alfalfa [2]; [10],55.0%
same,"% weed control, 7 day",Alfalfa [2]; [11],0.0%
same,"% weed control, 14 day",Alfalfa [2]; [11],50.0%
same,"% weed control, 21 day",Alfalfa [2]; [11],75.0%
same,"% weed control, 28 day",Alfalfa [2]; [11],55.0%
CP(=O)(O)CCC(N)C(=O)O (centres unmarked) [Glufosinate],"% weed control, 7 day",Morning glory; [12],0.0%
same,"% weed control, 14 day",Morning glory; [12],40.0%
same,"% weed control, 21 day",Morning glory; [12],25.0%
same,"% weed control, 28 day",Morning glory; [12],12.5%
same,"% weed control, 7 day",Morning glory; [13],0.0%
same,"% weed control, 14 day",Morning glory; [13],40.0%
same,"% weed control, 21 day",Morning glory; [13],25.0%
same,"% weed control, 28 day",Morning glory; [13],12.5%
same,"% weed control, 7 day",Morning glory; [14],0.0%
same,"% weed control, 14 day",Morning glory; [14],55.0%
same,"% weed control, 21 day",Morning glory; [14],40.0%
same,"% weed control, 28 day",Morning glory; [14],27.5%
same,"% weed control, 7 day",Morning glory; [15],0.0%
same,"% weed control, 14 day",Morning glory; [15],55.0%
same,"% weed control, 21 day",Morning glory; [15],40.0%
same,"% weed control, 28 day",Morning glory; [15],27.5%
"CCCCCCCCOC(=O)CC(C(=O)OCCCCCCCC)S(=O)(=O)O (centres unmarked) [dioctyl sulfosuccinate, Dioctyl sulfosuccinate]",overall disease control with fungicides,fungi,overall good control in all cases
same,efficacy compared with alkoxylated glyceride with 20EO,[3],lack of efficacy as compared to the alkoxylated glyceride with 20EO
Polyoxyethylene (20) sorbitan monolaurate,"% weed control, 7 day",Alfalfa [1]; [4],67.5%
same,"% weed control, 14 day",Alfalfa [1]; [4],83.8%
same,"% weed control, 21 day",Alfalfa [1]; [4],70.0%
same,"% weed control, 28 day",Alfalfa [1]; [4],72.5%
same,"% weed control, 7 day",Alfalfa [1]; [5],67.5%
same,"% weed control, 14 day",Alfalfa [1]; [5],81.3%
same,"% weed control, 21 day",Alfalfa [1]; [5],67.5%
same,"% weed control, 28 day",Alfalfa [1]; [5],72.5%
same,"% weed control, 7 day",Alfalfa [1]; [6],72.5%
same,"% weed control, 14 day",Alfalfa [1]; [6],86.3%
same,"% weed control, 21 day",Alfalfa [1]; [6],80.0%
same,"% weed control, 28 day",Alfalfa [1]; [6],85.0%
same,"% weed control, 7 day",Alfalfa [1]; [7],72.5%
same,"% weed control, 14 day",Alfalfa [1]; [7],82.5%
same,"% weed control, 21 day",Alfalfa [1]; [7],76.3%
same,"% weed control, 28 day",Alfalfa [1]; [7],81.3%
same,"% weed control, 7 day",Alfalfa [2]; [8],62.5%
same,"% weed control, 14 day",Alfalfa [2]; [8],73.8%
same,"% weed control, 21 day",Alfalfa [2]; [8],50.0%
same,"% weed control, 28 day",Alfalfa [2]; [8],62.5%
same,"% weed control, 7 day",Alfalfa [2]; [9],60.0%
same,"% weed control, 14 day",Alfalfa [2]; [9],70.0%
same,"% weed control, 21 day",Alfalfa [2]; [9],50.0%
same,"% weed control, 28 day",Alfalfa [2]; [9],50.0%
same,"% weed control, 7 day",Alfalfa [2]; [10],77.5%
same,"% weed control, 14 day",Alfalfa [2]; [10],87.5%
same,"% weed control, 21 day",Alfalfa [2]; [10],76.3%
same,"% weed control, 28 day",Alfalfa [2]; [10],81.3%
same,"% weed control, 7 day",Alfalfa [2]; [11],70.0%
same,"% weed control, 14 day",Alfalfa [2]; [11],83.8%
same,"% weed control, 21 day",Alfalfa [2]; [11],75.0%
same,"% weed control, 28 day",Alfalfa [2]; [11],78.8%
same,"% weed control, 7 day",Morning glory; [12],85.0%
same,"% weed control, 14 day",Morning glory; [12],80.0%
same,"% weed control, 21 day",Morning glory; [12],58.8%
same,"% weed control, 28 day",Morning glory; [12],56.3%
same,"% weed control, 7 day",Morning glory; [13],91.3%
same,"% weed control, 14 day",Morning glory; [13],92.0%
same,"% weed control, 21 day",Morning glory; [13],85.0%
same,"% weed control, 28 day",Morning glory; [13],82.5%
same,"% weed control, 7 day",Morning glory; [14],91.3%
same,"% weed control, 14 day",Morning glory; [14],91.3%
same,"% weed control, 21 day",Morning glory; [14],82.5%
same,"% weed control, 28 day",Morning glory; [14],81.3%
same,"% weed control, 7 day",Morning glory; [15],91.3%
same,"% weed control, 14 day",Morning glory; [15],93.8%
same,"% weed control, 21 day",Morning glory; [15],94.5%
same,"% weed control, 28 day",Morning glory; [15],95.8%
Sodium lauryl ether sulfate,"% weed control, 7 day",Alfalfa [1]; [4],67.5%
same,"% weed control, 14 day",Alfalfa [1]; [4],83.8%
same,"% weed control, 21 day",Alfalfa [1]; [4],73.8%
same,"% weed control, 28 day",Alfalfa [1]; [4],75.0%
same,"% weed control, 7 day",Alfalfa [1]; [5],67.5%
same,"% weed control, 14 day",Alfalfa [1]; [5],82.5%
same,"% weed control, 21 day",Alfalfa [1]; [5],72.5%
same,"% weed control, 28 day",Alfalfa [1]; [5],67.5%
same,"% weed control, 7 day",Alfalfa [1]; [6],72.5%
same,"% weed control, 14 day",Alfalfa [1]; [6],86.3%
same,"% weed control, 21 day",Alfalfa [1]; [6],86.3%
same,"% weed control, 28 day",Alfalfa [1]; [6],87.5%
same,"% weed control, 7 day",Alfalfa [1]; [7],75.0%
same,"% weed control, 14 day",Alfalfa [1]; [7],85.0%
same,"% weed control, 21 day",Alfalfa [1]; [7],82.5%
same,"% weed control, 28 day",Alfalfa [1]; [7],83.8%
same,"% weed control, 7 day",Alfalfa [2]; [8],72.5%
same,"% weed control, 14 day",Alfalfa [2]; [8],81.3%
same,"% weed control, 21 day",Alfalfa [2]; [8],71.3%
same,"% weed control, 28 day",Alfalfa [2]; [8],70.0%
same,"% weed control, 7 day",Alfalfa [2]; [9],65.0%
same,"% weed control, 14 day",Alfalfa [2]; [9],80.0%
same,"% weed control, 21 day",Alfalfa [2]; [9],67.5%
same,"% weed control, 28 day",Alfalfa [2]; [9],70.0%
same,"% weed control, 7 day",Alfalfa [2]; [10],72.5%
same,"% weed control, 14 day",Alfalfa [2]; [10],82.5%
same,"% weed control, 21 day",Alfalfa [2]; [10],76.3%
same,"% weed control, 28 day",Alfalfa [2]; [10],76.3%
same,"% weed control, 7 day",Alfalfa [2]; [11],67.5%
same,"% weed control, 14 day",Alfalfa [2]; [11],82.5%
same,"% weed control, 21 day",Alfalfa [2]; [11],75.0%
same,"% weed control, 28 day",Alfalfa [2]; [11],75.0%
same,"% weed control, 7 day",Morning glory; [12],85.0%
same,"% weed control, 14 day",Morning glory; [12],75.0%
same,"% weed control, 21 day",Morning glory; [12],55.0%
same,"% weed control, 28 day",Morning glory; [12],55.0%
same,"% weed control, 7 day",Morning glory; [13],87.5%
same,"% weed control, 14 day",Morning glory; [13],90.0%
same,"% weed control, 21 day",Morning glory; [13],87.5%
same,"% weed control, 28 day",Morning glory; [13],77.5%
same,"% weed control, 7 day",Morning glory; [14],92.5%
same,"% weed control, 14 day",Morning glory; [14],95.8%
same,"% weed control, 21 day",Morning glory; [14],95.8%
same,"% weed control, 28 day",Morning glory; [14],96.5%
same,"% weed control, 7 day",Morning glory; [15],90.0%
same,"% weed control, 14 day",Morning glory; [15],88.8%
same,"% weed control, 21 day",Morning glory; [15],91.3%
same,"% weed control, 28 day",Morning glory; [15],89.5%
